In ChEMBL document CHEMBL5346907, “Discovery of a novel oral type Ⅰ CDK8 inhibitor against acute myeloid leukemia” (Eur J Med Chem, 2023):
Active and inactive are the calls of the source. No cut-off for these calls is given here.

How the values were obtained:
HL-60 [1] = assay: Antiproliferative activity against human HL-60 cells incubated for 48 hrs by CCK8 assay; assay type: functional
SW480 = assay: Antiproliferative activity against human SW480 cells incubated for 48 hrs by CCK8 assay; assay type: functional
GES1 = assay: Antiproliferative activity against human GES1 cells incubated for 48 hrs by CCK8 assay; assay type: functional
[2] = molecular target: CDK18/Cyclin Y (Homo sapiens) (UniProt Q07002+Q8ND76); assay: Inhibition of CDK18/CyclinY (unknown origin) at 1 uM preincubated for 10 mins followed by substrate addition measured for 60 to 120 mins by HTRF assay relative to control; assay type: protein-complex assay; conditions: time 70-130 min
[3] = molecular target: CDK3/Cyclin E (Homo sapiens) (UniProt P24864+Q00526); assay: Inhibition of CDK3/CyclinE1 (unknown origin) at 1 uM preincubated for 10 mins followed by substrate addition measured for 60 to 120 mins by HTRF assay relative to control; assay type: protein-complex assay; conditions: time 70-130 min
CDK6/cyclin D1 = CDK6/cyclin D1 (Homo sapiens, UniProt Q00534); assay: Inhibition of CDK6/Cyclin D1 (unknown origin) preincubated for 10 mins followed by substrate addition measured for 60 to 120 mins by HTRF assay; assay type: protein-complex assay
[4] = molecular target: Tyrosine-protein kinase JAK1 (Homo sapiens) (UniProt P23458); assay: Inhibition of JAK1 (unknown origin) at 1 uM preincubated for 10 mins followed by substrate addition measured for 60 to 120 mins by HTRF assay relative to control; conditions: time 70-130 min
[5] = molecular target: Fibroblast growth factor receptor 1 (Homo sapiens) (UniProt P11362); assay: Inhibition of FGFR1 (unknown origin) at 1 uM preincubated for 10 mins followed by substrate addition measured for 60 to 120 mins by HTRF assay relative to control; conditions: time 70-130 min
[6] = molecular target: Proto-oncogene tyrosine-protein kinase receptor Ret (Homo sapiens) (UniProt P07949); assay: Inhibition of RET (unknown origin) at 1 uM preincubated for 10 mins followed by substrate addition measured for 60 to 120 mins by HTRF assay relative to control; conditions: time 70-130 min
[7] = molecular target: ALK tyrosine kinase receptor (Homo sapiens) (UniProt Q9UM73); assay: Inhibition of ALK (unknown origin) at 1 uM preincubated for 10 mins followed by substrate addition measured for 60 to 120 mins by HTRF assay relative to control; conditions: time 70-130 min
[8] = molecular target: Fibroblast growth factor receptor 4 (Homo sapiens) (UniProt P22455); assay: Inhibition of FGFR4 (unknown origin) at 1 uM preincubated for 10 mins followed by substrate addition measured for 60 to 120 mins by HTRF assay relative to control; conditions: time 70-130 min
[9] = molecular target: High affinity nerve growth factor receptor (Homo sapiens) (UniProt P04629); assay: Inhibition of TRKA (unknown origin) at 1 uM preincubated for 10 mins followed by substrate addition measured for 60 to 120 mins by HTRF assay relative to control; conditions: time 70-130 min
[10] = molecular target: Tyrosine-protein kinase BTK (Homo sapiens) (UniProt Q06187); assay: Inhibition of BTK (unknown origin) at 1 uM preincubated for 10 mins followed by substrate addition measured for 60 to 120 mins by HTRF assay relative to control; conditions: time 70-130 min
[11] = molecular target: Tyrosine-protein kinase SYK (Homo sapiens) (UniProt P43405); assay: Inhibition of SYK (unknown origin) at 1 uM preincubated for 10 mins followed by substrate addition measured for 60 to 120 mins by HTRF assay relative to control; conditions: time 70-130 min
[12] = molecular target: Protein-tyrosine kinase 2-beta (Homo sapiens) (UniProt Q14289); assay: Inhibition of PYK2 (unknown origin) at 1 uM preincubated for 10 mins followed by substrate addition measured for 60 to 120 mins by HTRF assay relative to control; conditions: time 70-130 min
[13] = molecular target: Tyrosine-protein kinase HCK (Homo sapiens) (UniProt P08631); assay: Inhibition of HCK (unknown origin) at 1 uM preincubated for 10 mins followed by substrate addition measured for 60 to 120 mins by HTRF assay relative to control; conditions: time 70-130 min
[14] = molecular target: Tyrosine-protein kinase ZAP-70 (Homo sapiens) (UniProt P43403); assay: Inhibition of ZAP70 (unknown origin) at 1 uM preincubated for 10 mins followed by substrate addition measured for 60 to 120 mins by HTRF assay relative to control; conditions: time 70-130 min
[15] = molecular target: Receptor tyrosine-protein kinase erbB-4 (Homo sapiens) (UniProt Q15303); assay: Inhibition of HER4 (unknown origin) at 1 uM preincubated for 10 mins followed by substrate addition measured for 60 to 120 mins by HTRF assay relative to control; conditions: time 70-130 min
[16] = molecular target: Tyrosine-protein kinase TXK (Homo sapiens) (UniProt P42681); assay: Inhibition of TXK (unknown origin) at 1 uM preincubated for 10 mins followed by substrate addition measured for 60 to 120 mins by HTRF assay relative to control; conditions: time 70-130 min
[17] = molecular target: Tyrosine-protein kinase Mer (Homo sapiens) (UniProt Q12866); assay: Inhibition of MER (unknown origin) at 1 uM preincubated for 10 mins followed by substrate addition measured for 60 to 120 mins by HTRF assay relative to control; conditions: time 70-130 min
[18] = molecular target: Tyrosine-protein kinase ABL2 (Homo sapiens) (UniProt P42684); assay: Inhibition of ABL2 (unknown origin) at 1 uM preincubated for 10 mins followed by substrate addition measured for 60 to 120 mins by HTRF assay relative to control; conditions: time 70-130 min
[19] = molecular target: Ephrin type-B receptor 4 (Homo sapiens) (UniProt P54760); assay: Inhibition of EPHB4 (unknown origin) at 1 uM preincubated for 10 mins followed by substrate addition measured for 60 to 120 mins by HTRF assay relative to control; conditions: time 70-130 min
[20] = molecular target: Cyclin-dependent kinase 8 (Homo sapiens, UniProt P49336); assay: Binding affinity to flag-tagged CDK8 (unknown origin) transfected in HEK-293T cells upto 4 uM incubated for 12 hrs by biotin pull down based Western blot analysis; assay type: cell-based
HCT-116 [21] = assay: Downregulation of STAT1 S727 expression in IFNgamma-stimulated human HCT-116 cells incubated for 12 hrs followed by IFNgamma stimulation for 3 hrs by Western blot analysis; assay type: functional, cell-based; conditions: dose 1-10 µM
HCT-116 [22] = assay: Downregulation of STAT5 S726 phosphorylation in human HCT-116 cells incubated for 12 hrs by Western blot analysis; assay type: functional, cell-based; conditions: dose 1-10 µM
HL-60 [23] = assay: Induction of apoptosis in human HL-60 cells assessed as late apoptotic cells at 1 uM incubated for 48 hrs by annexin V-FITC/PI staining based flow cytometry (reference value: 1.07 %); assay type: functional
HL-60 [24] = assay: Induction of apoptosis in human HL-60 cells assessed as early apoptosis cells at 10 uM incubated for 48 hrs by annexin V-FITC/PI staining based flow cytometry (reference value: 2.08 %); assay type: functional
[25] = Half life in Sprague-Dawley rat at 10 mg/kg, po; assay type: ADME, organism-based; conditions: in vivo
[26] = Tmax in Sprague-Dawley rat at 10 mg/kg, po; assay type: ADME, organism-based; conditions: in vivo
[27] = Acute toxicity in C57BL/6 mouse assessed as histopathological change in heart at 2000 mg/kg, IG measured for 14 days by H&E staining based analysis; assay type: organism-based; conditions: in vivo, po, 336 h, time 14 day
C1498 = assay: Downregulation of STAT1 S727 expression in mouse C1498 cells allografted in AML Balb/C mouse model administered orally daily for 15 days measured after 3 weeks by Western blot analysis; assay type: functional, cell-based; conditions: dose 40-80 mg/kg, route po, time 15.0 day

Chain of CDK3/Cyclin E (Homo sapiens) (P24864 whole entry, looked up): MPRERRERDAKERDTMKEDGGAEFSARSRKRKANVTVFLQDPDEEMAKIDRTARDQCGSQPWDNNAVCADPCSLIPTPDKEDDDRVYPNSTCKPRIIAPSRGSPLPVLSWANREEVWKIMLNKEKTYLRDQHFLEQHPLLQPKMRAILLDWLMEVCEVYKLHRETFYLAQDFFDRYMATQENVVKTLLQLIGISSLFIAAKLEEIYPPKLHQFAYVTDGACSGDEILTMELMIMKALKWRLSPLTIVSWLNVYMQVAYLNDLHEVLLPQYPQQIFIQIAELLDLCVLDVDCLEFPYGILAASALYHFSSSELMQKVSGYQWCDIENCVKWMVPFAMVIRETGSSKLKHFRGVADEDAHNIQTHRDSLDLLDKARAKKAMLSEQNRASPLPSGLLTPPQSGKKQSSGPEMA
Chain of CDK3/Cyclin E (Homo sapiens) (Q00526 whole entry, looked up): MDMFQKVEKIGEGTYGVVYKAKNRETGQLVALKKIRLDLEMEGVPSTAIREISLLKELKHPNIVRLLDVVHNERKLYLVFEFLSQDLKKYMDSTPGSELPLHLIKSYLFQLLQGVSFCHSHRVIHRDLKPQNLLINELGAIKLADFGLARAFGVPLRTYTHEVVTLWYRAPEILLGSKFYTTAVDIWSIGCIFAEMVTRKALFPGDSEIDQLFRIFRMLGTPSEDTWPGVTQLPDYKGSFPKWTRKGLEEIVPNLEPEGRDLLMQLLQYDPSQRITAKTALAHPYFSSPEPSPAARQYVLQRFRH
Chain of Cyclin-dependent kinase 8 (P49336 whole entry): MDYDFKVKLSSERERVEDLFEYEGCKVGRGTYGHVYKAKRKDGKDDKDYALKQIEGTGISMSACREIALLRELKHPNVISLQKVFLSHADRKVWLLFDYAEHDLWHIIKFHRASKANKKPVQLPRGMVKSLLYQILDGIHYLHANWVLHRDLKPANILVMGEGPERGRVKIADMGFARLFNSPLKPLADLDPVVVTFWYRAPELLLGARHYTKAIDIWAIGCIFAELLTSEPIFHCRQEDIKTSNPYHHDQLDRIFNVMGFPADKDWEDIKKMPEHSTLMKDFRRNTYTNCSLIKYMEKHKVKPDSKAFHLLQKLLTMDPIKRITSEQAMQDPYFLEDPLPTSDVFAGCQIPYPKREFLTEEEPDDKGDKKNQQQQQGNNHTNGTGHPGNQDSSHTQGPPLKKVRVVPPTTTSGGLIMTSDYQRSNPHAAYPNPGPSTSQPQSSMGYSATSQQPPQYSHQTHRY
Chain of Tyrosine-protein kinase ABL2 (Homo sapiens) (P42684 whole entry): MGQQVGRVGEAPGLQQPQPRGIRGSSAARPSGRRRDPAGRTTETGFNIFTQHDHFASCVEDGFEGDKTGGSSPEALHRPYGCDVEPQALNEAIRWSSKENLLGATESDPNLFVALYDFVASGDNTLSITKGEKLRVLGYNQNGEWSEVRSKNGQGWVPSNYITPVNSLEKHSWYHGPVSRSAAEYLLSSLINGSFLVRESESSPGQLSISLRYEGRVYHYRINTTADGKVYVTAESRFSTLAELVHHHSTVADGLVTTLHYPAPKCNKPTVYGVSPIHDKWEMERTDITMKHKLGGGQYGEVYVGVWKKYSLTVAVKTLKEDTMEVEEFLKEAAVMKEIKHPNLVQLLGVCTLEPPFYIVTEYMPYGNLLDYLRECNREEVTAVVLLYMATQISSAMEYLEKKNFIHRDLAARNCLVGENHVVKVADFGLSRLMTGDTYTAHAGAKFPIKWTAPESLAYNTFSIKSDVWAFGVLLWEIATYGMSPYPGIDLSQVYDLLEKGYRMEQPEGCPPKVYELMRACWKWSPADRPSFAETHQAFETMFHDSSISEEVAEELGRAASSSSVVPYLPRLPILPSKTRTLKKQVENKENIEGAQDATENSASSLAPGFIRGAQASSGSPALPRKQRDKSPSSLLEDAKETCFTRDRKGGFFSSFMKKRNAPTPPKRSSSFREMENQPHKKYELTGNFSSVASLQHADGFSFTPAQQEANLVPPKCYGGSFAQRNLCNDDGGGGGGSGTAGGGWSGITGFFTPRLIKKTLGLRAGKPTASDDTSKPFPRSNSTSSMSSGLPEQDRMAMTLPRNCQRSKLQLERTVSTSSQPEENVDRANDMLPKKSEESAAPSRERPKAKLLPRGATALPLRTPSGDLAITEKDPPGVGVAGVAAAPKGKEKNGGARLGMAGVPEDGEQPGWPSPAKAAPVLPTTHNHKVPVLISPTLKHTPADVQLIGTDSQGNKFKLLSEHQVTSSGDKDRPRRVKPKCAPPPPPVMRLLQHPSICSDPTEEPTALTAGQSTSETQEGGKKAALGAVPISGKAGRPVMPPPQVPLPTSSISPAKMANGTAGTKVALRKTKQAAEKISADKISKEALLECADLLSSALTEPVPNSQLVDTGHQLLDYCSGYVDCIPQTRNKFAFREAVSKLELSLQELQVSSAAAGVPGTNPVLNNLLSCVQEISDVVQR
Chain of Tyrosine-protein kinase JAK1 (Homo sapiens) (P23458 whole entry): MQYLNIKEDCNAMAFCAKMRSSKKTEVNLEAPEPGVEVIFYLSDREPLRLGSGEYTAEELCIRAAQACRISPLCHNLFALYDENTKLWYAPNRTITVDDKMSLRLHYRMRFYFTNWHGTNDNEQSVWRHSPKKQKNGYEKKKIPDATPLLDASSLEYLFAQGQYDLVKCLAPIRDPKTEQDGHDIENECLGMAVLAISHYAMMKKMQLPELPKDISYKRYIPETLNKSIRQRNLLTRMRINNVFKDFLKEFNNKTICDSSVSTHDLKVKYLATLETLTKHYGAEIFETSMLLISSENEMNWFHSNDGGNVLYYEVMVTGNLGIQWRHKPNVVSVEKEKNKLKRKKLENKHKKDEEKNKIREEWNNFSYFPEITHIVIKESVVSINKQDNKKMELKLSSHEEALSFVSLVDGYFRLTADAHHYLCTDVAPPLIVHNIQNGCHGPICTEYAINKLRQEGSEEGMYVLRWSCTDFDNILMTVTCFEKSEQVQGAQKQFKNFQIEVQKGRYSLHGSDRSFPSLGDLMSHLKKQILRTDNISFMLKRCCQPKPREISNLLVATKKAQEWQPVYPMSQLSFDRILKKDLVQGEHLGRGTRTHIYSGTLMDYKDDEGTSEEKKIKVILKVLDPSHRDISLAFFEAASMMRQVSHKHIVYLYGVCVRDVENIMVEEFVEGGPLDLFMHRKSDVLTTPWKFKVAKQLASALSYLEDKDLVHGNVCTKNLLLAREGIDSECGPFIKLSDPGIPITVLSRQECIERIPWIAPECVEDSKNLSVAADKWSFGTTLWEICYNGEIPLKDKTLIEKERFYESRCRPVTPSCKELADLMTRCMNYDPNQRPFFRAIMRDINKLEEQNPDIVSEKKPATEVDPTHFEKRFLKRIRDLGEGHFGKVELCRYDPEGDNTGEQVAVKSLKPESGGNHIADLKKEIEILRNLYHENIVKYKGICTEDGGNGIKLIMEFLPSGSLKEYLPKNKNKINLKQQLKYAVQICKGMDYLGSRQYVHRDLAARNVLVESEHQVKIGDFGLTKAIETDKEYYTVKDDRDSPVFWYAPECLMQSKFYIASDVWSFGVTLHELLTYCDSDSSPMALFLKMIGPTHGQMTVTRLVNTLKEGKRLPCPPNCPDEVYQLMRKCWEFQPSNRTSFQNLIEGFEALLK
Chain of Receptor tyrosine-protein kinase erbB-4 (Homo sapiens) (Q15303 whole entry): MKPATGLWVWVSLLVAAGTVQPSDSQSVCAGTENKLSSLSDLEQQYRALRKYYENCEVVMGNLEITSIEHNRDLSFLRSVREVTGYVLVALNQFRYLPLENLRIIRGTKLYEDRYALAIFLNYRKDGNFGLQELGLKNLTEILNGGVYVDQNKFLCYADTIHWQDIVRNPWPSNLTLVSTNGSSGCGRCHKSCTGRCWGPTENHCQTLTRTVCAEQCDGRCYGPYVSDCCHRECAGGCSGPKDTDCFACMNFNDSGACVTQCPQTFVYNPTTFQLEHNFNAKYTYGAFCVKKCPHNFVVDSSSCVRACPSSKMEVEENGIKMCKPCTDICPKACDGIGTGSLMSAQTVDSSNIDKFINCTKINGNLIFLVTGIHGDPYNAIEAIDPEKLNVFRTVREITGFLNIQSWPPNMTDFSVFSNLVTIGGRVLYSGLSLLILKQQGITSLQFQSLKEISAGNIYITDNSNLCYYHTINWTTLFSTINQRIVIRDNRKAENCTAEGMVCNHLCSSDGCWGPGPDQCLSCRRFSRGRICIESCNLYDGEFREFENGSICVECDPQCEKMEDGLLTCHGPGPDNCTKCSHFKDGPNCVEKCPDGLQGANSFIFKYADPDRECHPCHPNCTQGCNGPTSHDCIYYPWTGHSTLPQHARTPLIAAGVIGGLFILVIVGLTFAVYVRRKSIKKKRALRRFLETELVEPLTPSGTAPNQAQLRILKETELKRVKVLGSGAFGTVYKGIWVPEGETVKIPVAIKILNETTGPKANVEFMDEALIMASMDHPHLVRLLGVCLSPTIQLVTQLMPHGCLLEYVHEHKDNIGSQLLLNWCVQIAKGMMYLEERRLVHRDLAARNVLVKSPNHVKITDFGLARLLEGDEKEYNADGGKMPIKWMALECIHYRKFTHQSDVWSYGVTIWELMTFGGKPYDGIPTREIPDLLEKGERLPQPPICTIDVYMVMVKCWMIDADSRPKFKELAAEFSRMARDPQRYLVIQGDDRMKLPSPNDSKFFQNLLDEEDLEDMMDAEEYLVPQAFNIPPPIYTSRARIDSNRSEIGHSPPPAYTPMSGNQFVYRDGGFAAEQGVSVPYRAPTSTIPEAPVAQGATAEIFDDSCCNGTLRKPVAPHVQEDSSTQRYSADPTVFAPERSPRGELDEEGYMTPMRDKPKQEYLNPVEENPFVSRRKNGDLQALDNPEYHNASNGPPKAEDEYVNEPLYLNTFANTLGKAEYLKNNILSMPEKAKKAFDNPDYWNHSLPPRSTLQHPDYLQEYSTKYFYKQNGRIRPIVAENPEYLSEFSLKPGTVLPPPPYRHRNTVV

Question: What does the source list for `NC(=O)c1cccc(-c2cnc3[nH]ccc3c2)c1`?
Answer: GI50 (HL-60 [1]): 1000 nM; GI50 (SW480): > 50000 nM; GI50 (GES1): > 100000 nM; inhibition [2]: 3.47%; inhibition [3]: 1.34%; IC50 (CDK6/cyclin D1): 594 nM; inhibition [4]: 31.5%; inhibition [5]: 28.1%; inhibition [6]: 23.9%; inhibition [7]: 19.1%; inhibition [8]: 14.1%; inhibition [9]: 13.3%; inhibition [10]: 5.27%; inhibition [11]: 4.7%; inhibition [12]: 3.1%; inhibition [13]: 2.33%; inhibition [14]: 0%; inhibition [15]: 0%; inhibition [16]: 0%; inhibition [17]: 0%; inhibition [18]: 0%; inhibition [19]: 0%; Activity [20]: Active; Activity (HCT-116 [21]): Dose-Dependent Effect; Activity (HCT-116 [22]): Dose-Dependent Effect; Activity (HL-60 [23]): 38%; Activity (HL-60 [24]): 0.15%; half-life [25]: 1.4 h; Tmax [26]: 1 h; Activity [27]: Non-Toxic; Activity (C1498): Dose-Dependent Effect
